From patent US8586550B2, “Thiazole derivatives as SGLT2 inhibitors and pharmaceutical composition comprising same” (Green Cross Corporation, priority 2010, dated 2013)

The compounds below were run against T1, Human SGLT2 (hSGLT2) (Homo sapiens, UniProt P31639) (assay: Sodium-dependent glucose transport (14C-AMG uptake) assay in CHO cells stably expressing hSGLT2). Conditions: CHO cells expressing hSGLT2, 14C-AMG uptake, 37° C. for 2 h; single determinations; read-out: hSGLT2 Inhibitory Activity IC50.
T1 construct: expressed in transfected cells
T1 sequence (P31639 1-672): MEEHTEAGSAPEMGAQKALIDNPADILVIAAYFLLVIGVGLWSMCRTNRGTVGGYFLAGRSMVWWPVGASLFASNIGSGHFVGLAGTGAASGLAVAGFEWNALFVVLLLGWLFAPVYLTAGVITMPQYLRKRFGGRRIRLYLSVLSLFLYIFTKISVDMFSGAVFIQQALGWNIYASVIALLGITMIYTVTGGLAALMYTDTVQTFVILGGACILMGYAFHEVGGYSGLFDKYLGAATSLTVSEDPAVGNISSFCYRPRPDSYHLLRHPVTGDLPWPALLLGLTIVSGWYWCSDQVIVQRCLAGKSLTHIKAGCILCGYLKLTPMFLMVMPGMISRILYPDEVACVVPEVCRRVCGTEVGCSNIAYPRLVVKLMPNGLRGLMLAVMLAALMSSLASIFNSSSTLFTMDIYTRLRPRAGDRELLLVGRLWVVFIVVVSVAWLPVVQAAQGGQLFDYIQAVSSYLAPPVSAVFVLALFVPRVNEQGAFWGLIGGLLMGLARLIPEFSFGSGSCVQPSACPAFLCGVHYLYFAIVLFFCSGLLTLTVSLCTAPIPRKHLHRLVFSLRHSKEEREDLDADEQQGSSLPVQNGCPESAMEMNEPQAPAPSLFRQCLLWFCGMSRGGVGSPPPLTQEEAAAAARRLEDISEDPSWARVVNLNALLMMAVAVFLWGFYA
Type: cell-based
Excerpt: Cloning and Cell Line Construction for Human SGLT2
Human SGLT2 (hSGLT2) gene was amplified by PCR from cDNA-Human Adult Normal Tissue Kidney (Invitrogen). The hSGLT2 sequence was cloned into pcDNA3.1(+) for mammalian expression and were stably transfected into chinese hamster ovary (CHO) cells. SGLT2-expressing clones were selected based on resistance to G418 antibiotic (Geneticin) and activity in the ^14C-α-methyl-D-glucopyranoside (^14C-AMG) uptake assay.
Inhibitory Effects on Human SGLT2 Activities
For sodium-dependent glucose transport assay, cells expressing hSGLT2 were seeded into a 96-well culture plate at a density of 5×10^4 cells/well in RPMI medium 1640 containing 10% fetal bovine serum. The cells were used 1 day after plating. They were incubated in pretreatment buffer (10 mM HEPES, 5 mM Tris, 140 mM choline chloride, 2 mM KCl, 1 mM CaCl2, and 1 mM MgCl2, pH 7.4) at 37° C. for 10 min. They were then incubated in uptake buffer (10 mM HEPES, 5 mM Tris, 140 mM NaCl, 2 mM KCl, 1 mM CaCl2, 1 mM MgCl2, and 1 mM ^14C-nonlabeled AMG, pH 7.4) containing ^14C-labeled (8 μM) and inhibitor or dimethylsulfoxide (DMSO) vehicle at 37° C. for 2 h. Cells were washed twice with washing buffer (pretreatment buffer containing 10 mM AMG at room temperature) and then the radioactivity was measured using a liquid scintillation counter. IC50 was determined by nonlinear regression analysis using GraphPad PRISM [Katsuno, K. et al. J. Pharmacol. Exp. Ther. 2007, 320, 323-330; Han, S. et al. Deabetes, 2008, 57, 1723-1729].
OC[C@H]1O[C@@H](c2ccc(C(F)(F)F)c(Cc3ncc(-c4ccsc4)s3)c2)[C@H](O)[C@@H](O)[C@@H]1O [Example 50, (2R,3S,4R,5R,6S)-2-(Hydroxymethyl)-6-(3-((5-(thiophen-3-yl)thiazol-2-yl)methyl)-4-(trifluoromethyl)phenyl)tetrahydro-2H-pyran-3,4,5-triol] gave an IC50 of 14.6 nM.
In the case of OC[C@H]1O[C@@H](c2ccc(C(F)(F)F)c(Cc3ncc(-c4ccccc4)s3)c2)[C@H](O)[C@@H](O)[C@@H]1O [Example 51, (2R,3S,4R,5R,6S)-2-(Hydroxymethyl)-6-(3-((5-phenylthiazol-2-yl)methyl)-4-(trifluoromethyl)phenyl)tetrahydro-2H-pyran-3,4,5-triol], the IC50 is reported as 20.8 nM.
OC[C@H]1O[C@@H](c2ccc(C(F)(F)F)c(Cc3ncc(-c4ccc(F)cc4)s3)c2)[C@H](O)[C@@H](O)[C@@H]1O [Example 52, (2S,3R,4R,5S,6R)-2-(3-((5-(4-Fluorophenyl)thiazol-2-yl)methyl)-4-(trifluoromethyl)phenyl)-6-(hydroxymethyl)tetrahydro-2H-pyran-3,4,5-triol] gave an IC50 of 87.2 nM.
OC[C@H]1O[C@@H](c2cc(Cc3ncc(-c4ccco4)s3)c(Cl)cc2F)[C@H](O)[C@@H](O)[C@@H]1O [Example 53, (2S,3R,4R,5S,6R)-2-(4-Chloro-2-fluoro-5-((5-(furan-2-yl)thiazol-2-yl)methyl)phenyl)-6-(hydroxymethyl)tetrahydro-2H-pyran-3,4,5-triol] was tested, and the IC50 was 3.49 nM.
Work on OC[C@H]1O[C@@H](c2cc(Cc3ncc(-c4ccoc4)s3)c(Cl)cc2F)[C@H](O)[C@@H](O)[C@@H]1O [Example 54, (2S,3R,4R,5S,6R)-2-(4-Chloro-2-fluoro-5-((5-(furan-3-yl)thiazol-2-yl)methyl)phenyl)-6-(hydroxymethyl)tetrahydro-2H-pyran-3,4,5-triol] yielded an IC50 of 5.35 nM.
OC[C@H]1O[C@@H](c2cc(Cc3ncc(-c4cccs4)s3)c(Cl)cc2F)[C@H](O)[C@@H](O)[C@@H]1O [Example 55, (2S,3R,4R,5S,6R)-2-(4-Chloro-2-fluoro-5-((5-(thiophen-2-yl)thiazol-2-yl)methyl)phenyl)-6-(hydroxymethyl)tetrahydro-2H-pyran-3,4,5-triol] gave an IC50 of 3.88 nM.
With OC[C@H]1O[C@@H](c2cc(Cc3ncc(-c4ccsc4)s3)c(Cl)cc2F)[C@H](O)[C@@H](O)[C@@H]1O [Example 56, (2S,3R,4R,5S,6R)-2-(4-Chloro-2-fluoro-5-((5-(thiophen-3-yl)thiazol-2-yl)methyl)phenyl)-6-(hydroxymethyl)tetrahydro-2H-pyran-3,4,5-triol] the IC50 was 2.12 nM.
Compound OC[C@H]1O[C@@H](c2cc(Cc3ncc(-c4ccccc4)s3)c(Cl)cc2F)[C@H](O)[C@@H](O)[C@@H]1O [Example 57, (2S,3R,4R,5S,6R)-2-(4-Chloro-2-fluoro-5-((5-phenylthiazol-2-yl)methyl)phenyl)-6-(hydroxymethyl)tetrahydro-2H-pyran-3,4,5-triol] has an IC50 of 4.57 nM.
OC[C@H]1O[C@@H](c2cc(Cc3ncc(-c4ccco4)s3)c(Cl)cc2Cl)[C@H](O)[C@@H](O)[C@@H]1O [Example 59, (2S,3R,4R,5S,6R)-2-(2,4-Dichloro-5-((5-(furan-2-yl)thiazol-2-yl)methyl)phenyl)-6-(hydroxymethyl)tetrahydro-2H-pyran-3,4,5-triol] gave an IC50 of 5.43 nM.
With OC[C@H]1O[C@@H](c2cc(Cc3ncc(-c4ccoc4)s3)c(Cl)cc2Cl)[C@H](O)[C@@H](O)[C@@H]1O [Example 60, (2S,3R,4R,5S,6R)-2-(2,4-Dichloro-5-((5-(furan-3-yl)thiazol-2-yl)methyl)phenyl)-6-(hydroxymethyl)tetrahydro-2H-pyran-3,4,5-triol] the IC50 was 13.3 nM.
In the case of OC[C@H]1O[C@@H](c2cc(Cc3ncc(-c4cccs4)s3)c(Cl)cc2Cl)[C@H](O)[C@@H](O)[C@@H]1O [Example 61, (2S,3R,4R,5S,6R)-2-(2,4-Dichloro-5-((5-(thiophen-2-yl)thiazol-2-yl)methyl)phenyl)-6-(hydroxymethyl)tetrahydro-2H-pyran-3,4,5-triol], the IC50 is reported as 4.77 nM.
OC[C@H]1O[C@@H](c2cc(Cc3ncc(-c4ccsc4)s3)c(Cl)cc2Cl)[C@H](O)[C@@H](O)[C@@H]1O [Example 62, (2S,3R,4R,5S,6R)-2-(2,4-Dichloro-5-((5-(thiophen-3-yl)thiazol-2-yl)methyl)phenyl)-6-(hydroxymethyl)tetrahydro-2H-pyran-3,4,5-triol] gave an IC50 of 2.31 nM.
Cc1cnc(Cc2cc([C@@H]3O[C@H](CO)[C@@H](O)[C@H](O)[C@H]3O)c(Cl)cc2Cl)s1 [Example 63, (2S,3R,4R,5S,6R)-2-(2,4-Dichloro-5-((5-methylthiazol-2-yl)methyl)phenyl)-6-(hydroxymethyl)tetrahydro-2H-pyran-3,4,5-triol] showed an IC50 of 49.1 nM.
For CCc1cnc(Cc2cc([C@@H]3O[C@H](CO)[C@@H](O)[C@H](O)[C@H]3O)c(Cl)cc2Cl)s1 [Example 64, (2S,3R,4R,5S,6R)-2-(2,4-Dichloro-5-((5-ethylthiazol-2-yl)methyl)phenyl)-6-(hydroxymethyl)tetrahydro-2H-pyran-3,4,5-triol], the IC50 was 26.3 nM.
CCCc1cnc(Cc2cc([C@@H]3O[C@H](CO)[C@@H](O)[C@H](O)[C@H]3O)c(Cl)cc2Cl)s1 [Example 65, (2S,3R,4R,5S,6R)-2-(2,4-Dichloro-5-((5-propylthiazol-2-yl)methyl)phenyl)-6-(hydroxymethyl)tetrahydro-2H-pyran-3,4,5-triol] was tested, and the IC50 was 43.7 nM.
In the case of CCCCc1cnc(Cc2cc([C@@H]3O[C@H](CO)[C@@H](O)[C@H](O)[C@H]3O)c(Cl)cc2Cl)s1 [Example 66, (2S,3R,4R,5S,6R)-2-(5-((5-Butylthiazol-2-yl)methyl)-2,4-dichlorophenyl)-6-(hydroxymethyl)tetrahydro-2H-pyran-3,4,5-triol], the IC50 is reported as 60.5 nM.
With CCCCCCc1cnc(Cc2cc([C@@H]3O[C@H](CO)[C@@H](O)[C@H](O)[C@H]3O)c(Cl)cc2Cl)s1 [Example 67, (2S,3R,4R,5S,6R)-2-(2,4-Dichloro-5-((5-hexylthiazol-2-yl)methyl)phenyl)-6-(hydroxymethyl)tetrahydro-2H-pyran-3,4,5-triol] the IC50 was 38.7 nM.
For OC[C@H]1O[C@@H](c2cc(Cc3ncc(C4CCCC4)s3)c(Cl)cc2Cl)[C@H](O)[C@@H](O)[C@@H]1O [Example 68, (2S,3R,4R,5S,6R)-2-(2,4-Dichloro-5-((5-cyclopentylthiazol-2-yl)methyl)phenyl)-6-(hydroxymethyl)tetrahydro-2H-pyran-3,4,5-triol], the IC50 was 33 nM.
COc1cc(Cl)c(Cc2ncc(-c3ccco3)s2)cc1[C@@H]1O[C@H](CO)[C@@H](O)[C@H](O)[C@H]1O [Example 69, (2S,3R,4R,5S,6R)-2-(4-Chloro-5-((5-(furan-2-yl)thiazol-2-yl)methyl)-2-methoxyphenyl)-6-(hydroxymethyl)tetrahydro-2H-pyran-3,4,5-triol] was tested, and the IC50 was 2.24 nM.
Compound COc1cc(Cl)c(Cc2ncc(-c3ccoc3)s2)cc1[C@@H]1O[C@H](CO)[C@@H](O)[C@H](O)[C@H]1O [Example 70, (2S,3R,4R,5S,6R)-2-(4-Chloro-5-((5-(furan-3-yl)thiazol-2-yl)methyl)-2-methoxyphenyl)-6-(hydroxymethyl)tetrahydro-2H-pyran-3,4,5-triol] has an IC50 of 7.37 nM.
With COc1cc(Cl)c(Cc2ncc(-c3ccsc3)s2)cc1[C@@H]1O[C@H](CO)[C@@H](O)[C@H](O)[C@H]1O [Example 72, (2S,3R,4R,5S,6R)-2-(4-Chloro-2-methoxy-5-((5-(thiophen-3-yl)thiazol-2-yl)methyl)phenyl)-6-(hydroxymethyl)tetrahydro-2,1-pyran-3,4,5-triol] the IC50 was 1.29 nM.
COc1cc(Cl)c(Cc2ncc(-c3ccccc3)s2)cc1[C@@H]1O[C@H](CO)[C@@H](O)[C@H](O)[C@H]1O [Example 73, (2S,3R,4R,5S,6R)-2-(4-Chloro-2-methoxy-5-((5-phenylthiazol-2-yl)methyl)phenyl)-6-(hydroxymethyl)tetrahydro-2H-pyran-3,4,5-triol] was tested, and the IC50 was 2.01 nM.
